Test results as given in ChEMBL document CHEMBL1201862, “PubChem BioAssay data set” (2004).
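Following 48 hours of exposure in 96-well plates, responses at five concentrations were used to interpolate endpoints linearly. At the GI50, growth is halved.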 The source made the active and inactive calls. No stated cut-off is given here; in the data, active = GI50 up to about 1.1 µM and inactive = higher.

Experiments:
Assay in all cases: NCI anticancer screen, dose series, 48 h
Hs-578T = system: Hs-578T
PC-3 = system: PC-3
K562 = system: K562
CAKI-1 = system: CAKI-1
COLO 205 = system: COLO 205
NCI-H226 = system: NCI-H226
SN12C = system: SN12C
SK-MEL-2 = system: SK-MEL-2
HCT-15 = system: HCT-15
SK-MEL-5 = system: SK-MEL-5
HT-29 = system: HT-29
UACC-62 = system: UACC-62
UACC-257 = system: UACC-257
NCI-H23 = system: NCI-H23
Malme-3M = system: Malme-3M
OVCAR-8 = system: OVCAR-8
MDA-N = system: MDA-N
HOP-62 = system: HOP-62
OVCAR-5 = system: OVCAR-5
BT-549 = system: BT-549

With COc1ccc(OC)c(/C=N/N=C2\C(=O)Nc3c(Cl)cc(Cl)cc32)c1 the GI50 (Hs-578T) was 20.4 µM (inactive), the GI50 (PC-3) was 38.8 µM (inactive) and the GI50 (K562) was 36 µM (inactive). The GI50 (CAKI-1) was 71.3 µM (inactive), the GI50 (COLO 205) was > 100 µM (inactive) and the GI50 (NCI-H226) was 82.6 µM (inactive). For the same compound, the GI50 (SN12C) was > 100 µM (inactive), the GI50 (SK-MEL-2) was 21.2 µM (inactive) and the GI50 (HCT-15) was 36.6 µM. For the same compound, the GI50 (SK-MEL-5) was 56.1 µM (inactive), the GI50 (HT-29) was 63.4 µM (inactive) and the GI50 (UACC-62) was 55.6 µM (inactive). The GI50 (UACC-257) was > 100 µM (inactive), the GI50 (NCI-H23) was 48.4 µM (inactive) and the GI50 (Malme-3M) was > 100 µM (inactive). The GI50 (OVCAR-8) was 61 µM (inactive), the GI50 (MDA-N) was 20 µM (inactive) and the GI50 (HOP-62) was 19 µM (inactive). The GI50 (OVCAR-5) was > 100 µM (inactive) and the GI50 (BT-549) was 26.1 µM (inactive).

In the case of CC(=O)Nc1ccc(-c2cc(C(=O)O)c3cc4ccccc4cc3n2)cc1, the GI50 (Hs-578T) was > 100 µM (inactive), the GI50 (PC-3) was > 100 µM (inactive) and the GI50 (K562) was > 100 µM (inactive). The GI50 (CAKI-1) was > 100 µM (inactive), the GI50 (COLO 205) was > 100 µM (inactive) and the GI50 (NCI-H226) was > 100 µM (inactive). For the same compound, the GI50 (SN12C) was > 100 µM (inactive), the GI50 (SK-MEL-2) was > 100 µM (inactive) and the GI50 (HCT-15) was > 100 µM. The GI50 (SK-MEL-5) was > 100 µM (inactive), the GI50 (HT-29) was > 100 µM (inactive) and the GI50 (UACC-62) was > 100 µM (inactive). The GI50 (UACC-257) was > 100 µM (inactive), the GI50 (NCI-H23) was > 100 µM (inactive) and the GI50 (Malme-3M) was > 100 µM (inactive). For the same compound, the GI50 (OVCAR-8) was > 100 µM (inactive), the GI50 (MDA-N) was > 100 µM (inactive) and the GI50 (HOP-62) was > 100 µM (inactive). The GI50 (OVCAR-5) was > 100 µM (inactive) and the GI50 (BT-549) was > 100 µM (inactive).

COc1cc2nc3n(c2cc1OC)C(O)c1c(Cl)nc(SC)nc1S3 (stereo not given) was tested, and the GI50 (Hs-578T) was 2.77 µM (inactive), the GI50 (PC-3) was 2.75 µM (inactive) and the GI50 (K562) was 3.03 µM (inactive). For the same compound, the GI50 (CAKI-1) was 7.24 µM (inactive), the GI50 (COLO 205) was 4.78 µM (inactive) and the GI50 (NCI-H226) was 3.35 µM (inactive). The GI50 (SN12C) was 3.86 µM (inactive), the GI50 (SK-MEL-2) was 2 µM (inactive) and the GI50 (HCT-15) was 2.64 µM. For the same compound, the GI50 (SK-MEL-5) was 1.92 µM (inactive), the GI50 (HT-29) was 3.22 µM (inactive) and the GI50 (UACC-62) was 2.19 µM (inactive). The GI50 (UACC-257) was 13.1 µM (inactive), the GI50 (NCI-H23) was 4.21 µM (inactive) and the GI50 (Malme-3M) was 1.2 µM (inactive). The GI50 (OVCAR-8) was 2.59 µM (inactive), the GI50 (MDA-N) was 3.36 µM (inactive) and the GI50 (HOP-62) was 3.72 µM (inactive). The GI50 (OVCAR-5) was 16.6 µM (inactive) and the GI50 (BT-549) was 2.16 µM (inactive).

For CCOc1cc(C2SCC(=O)N2c2ccc(Oc3ccc(Cl)cc3)c(Cl)c2)ccc1O (stereo not given), the GI50 (Hs-578T) was 17.3 µM (inactive), the GI50 (PC-3) was 16.6 µM (inactive) and the GI50 (K562) was 27.1 µM (inactive). For the same compound, the GI50 (CAKI-1) was 17.3 µM (inactive), the GI50 (COLO 205) was 22.5 µM (inactive) and the GI50 (NCI-H226) was 15.6 µM (inactive). The GI50 (SN12C) was 33 µM (inactive), the GI50 (SK-MEL-2) was 14 µM (inactive) and the GI50 (HCT-15) was 19.6 µM. The GI50 (SK-MEL-5) was 16.1 µM (inactive), the GI50 (HT-29) was 17.1 µM (inactive) and the GI50 (UACC-62) was 16.4 µM (inactive). For the same compound, the GI50 (UACC-257) was 17.5 µM (inactive), the GI50 (NCI-H23) was 17 µM (inactive) and the GI50 (Malme-3M) was 17.1 µM (inactive). The GI50 (OVCAR-8) was 17.7 µM (inactive), the GI50 (MDA-N) was 23.1 µM (inactive) and the GI50 (HOP-62) was 17.6 µM (inactive). For the same compound, the GI50 (OVCAR-5) was 20.2 µM (inactive) and the GI50 (BT-549) was 15.1 µM (inactive).
